Results reported in patent publication US20240423971A1, “APPLICATION OF RIP2 INHIBITOR COMBINED WITH CHEMOTHERAPY DRUG” (NINGBO COMBIREG PHARMACEUTICAL TECHNOLOGY CO., LTD., priority 2021, published 2024).

Key:
[1] = system: melanoma (B16F10); assay: Melanoma (B16F10) tumor-bearing model, GSK583 combined with PTX; type: in vivo, C57BL/6 mice; details: GSK583 1 mg/kg
Protocol: Both of the test substances PTX (Sigma) and GSK583 (MCE) were prepared as a 20× DMSO stock solution, which was diluted with normal saline containing 5% (v/v) polyoxyethylene castor oil (Cremophor EL) to the administration concentration before use. Experimental animals and tumor strains: SPF grade male wild-type C57BL/6 mice, 6 to 8 weeks old, purchased from Beijing Vital River Laboratory Animal Technology Co., Ltd. Cells used in the experiment: murine melanoma cell line (B16-F10), purchased from ATCC. Mice were randomly divided into 4 groups with 8 mice in each group based on body weight according to the method shown in (A of FIG. 1 and B of FIG. 1), namely: (i) vehicle control group; (ii) GSK583 (1 mg/kg) group; (iii) PTX (10 mg/kg) group; (iv) GSK583 (1 mg/kg)+PTX (10 mg/kg) group. PTX, GSK583, and vehicle were administered intravenously once every 4 days for a total of 4 doses. The mice were subcutaneously inoculated with B16-F10 cells with a concentration of 2× 10^6 cells/mL and 0.1 mL/mouse, and the day of inoculation was recorded as DAY 0. The administration was started on DAY 1. During the administration, the animals were weighed every 2 days. The long diameter and short diameter of the tumor were measured with a vernier caliper. The tumor size was calculated by the formula: (½)×long diameter×(short diameter) 2. The experiment was terminated on DAY 15. After the mice were euthanized and dissected, the tumor was weighed and the tumor inhibition rate was calculated.

[2] = system: immune cells in tumor tissues of melanoma (B16F10) tumor-bearing model; assay: Flow cytometry detection of proportion of immune cells in tumor microenvironment of melanoma tumor-bearing mice; type: in vivo, C57BL/6 mice; details: GSK583 1 mg/kg, PTX 10 mg/kg, combination vs vehicle, GSK583-alone
Protocol: Preparation of enzyme lysis buffer: 1 g of collagenase type IV (Sigma C5138), 100 mg of hyaluronidase (Sigma H6254), and 20,000 units of DNase type IV (Sigma D5025) were added to 80 mL of HBSS and mixed well. The mixture was then added with HBSS to make up a volume of 100 mL to obtain a 100×enzyme lysis buffer, which was filtered through a 0.22 μm filter membrane and stored at −20° C., and diluted with HBSS to 1× concentration before use.
Dissociation of tumor tissues: Tumor tissues were removed and weighed (0.04 to 1 g), then cut into small pieces of 2×2 mm with a scalpel, added with 2.5 mL of enzyme lysis mixture, and transferred to a gentleMACS C Tube (Miltenyi Biotec 130-096-334). The C Tube was inverted on a gentleMACS Dissociator (Miltenyi Biotec 130-093-235), and the program “gentleMACS Program m_impTumor_02” was run. The C Tube was removed from the gentleMACS Dissociator and incubated at 37° C. for 40 minutes. The C Tube was inverted on the gentleMACS Dissociator again, and the program “gentleMACS Program m_impTumor_03” was run. […]
Flow cytometry detection: After counting the dissociated tumor tissues, the cell concentration was adjusted, and 200 μL/well of cells (5 to 10×10^5 cells/well) were added to a 96 U-bottom plate. […] The cells were resuspended in 100 μL/well of cell staining buffer, and then detected by flow cytometry.

## CC(=O)O[C@H]1C(=O)[C@@]2(C)[C@H]([C@H](OC(=O)c3ccccc3)[C@]3(O)C[C@H](OC(=O)[C@H](O)[C@@H](NC(=O)c4ccccc4)c4ccccc4)C(C)=C1C3(C)C)[C@]1(OC(C)=O)CO[C@@H]1C[C@@H]2O [PTX, Paclitaxel]
[1]; B16-F10 in C57BL/6 mice, PTX 10 mg/kg i.v. every 4 days x4, DAY 15, vs control group
  tumor weight at the end of the administration: significantly and statistically lower than that of the control group
[1]; B16-F10 in C57BL/6 mice, PTX 10 mg/kg i.v. every 4 days x4, vs control group
  growth rate of tumor volume: slower than that of the control group
[1]; B16-F10 s.c. in C57BL/6 mice, PTX 10 mg/kg i.v. once every 4 days, 4 doses, to DAY 15
  tumor growth compared to the vehicle control group: significantly inhibited tumor growth
[2]
  proportion of neutrophils in tumor tissues: significant decrease
